In DBAASP:
Values after ≈ are worked out from the molar mass of the structure shown. Each block holds one compound with its values, some of them ahead of it.

Columns and labels:
Test in all cases: ≥ marks a high value that may be exact or a test limit, other limits are often not marked, values filed in µg/mL are converted to µM
[1] = system: Aeromonas salmonicida NCTC 7812
[2] = system: Enterococcus faecalis ATCC 29212
[3] = system: Escherichia coli ATCC 25922
[4] = system: Lactococcus garvieae 00-1422
[5] = system: Shigella flexneri ATCC 12022
[6] = system: Staphylococcus aureus ATCC 29213
[7] = system: Streptococcus iniae 00-1425
[8] = system: Vibrio anguillarum ATCC 19264
[9] = system: Acinetobacter baumannii ATCC 19606
[10] = system: Klebsiella pneumoniae ATCC 13883
[11] = system: Pseudomonas aeruginosa ATCC 27853
[12] = system: Salmonella enterica subsp. enterica serovar Choleraesuis ATCC 10708
[13] = system: Staphylococcus aureus ATCC 33591
[14] = system: Staphylococcus aureus ATCC 43300
[15] = system: Staphylococcus epidermidis ATCC 12228
[16] = system: Listeria fleischmannii DSM 24998
[17] = system: Listeria monocytogenes DSM 20600
[18] = system: Micrococcus luteus DSM 20030
[19] = system: Staphylococcus aureus DSM 2569
Bacillus subtilis 168 = system: Bacillus subtilis 168
[20] = system: Candida albicans F7-39/IDE99
Escherichia coli B = system: Escherichia coli B
[21] = system: Micrococcus luteus CCM 144
Pseudomonas aeruginosa = system: Pseudomonas aeruginosa
Staphylococcus aureus 1 = system: Staphylococcus aureus 1
Staphylococcus aureus = system: Staphylococcus aureus
[22] = system: Staphylococcus epidermidis
[23] = system: Streptococcus mutans UA159
[24] = system: Streptococcus sanguinis ATCC 10556
[25] = system: Streptococcus sobrinus ATCC 6715
[26] = system: Candida albicans ATCC 10231
[27] = system: Candida albicans ATCC 90028
[28] = system: Staphylococcus aureus ATCC 29737
[29] = system: Staphylococcus aureus USA 100
[30] = system: Staphylococcus aureus USA 300
[31] = system: Candida albicans ATCC 18804
[32] = system: Staphylococcus aureus ATCC 25923
Escherichia coli AB94012 = system: Escherichia coli AB94012
[33] = system: Pseudomonas aeruginosa AB93066
[34] = system: Pseudomonas aeruginosa ATCC 9027
[35] = system: Staphylococcus aureus AB94004
[36] = system: Staphylococcus aureus ATCC 6538
[37] = system: Staphylococcus aureus P1374
[38] = system: Staphylococcus aureus P1381

MIC [1]: ≥ 78.6 µM
MIC [2]: 1.23 µM (≈ 3.13 µg/mL)
MIC [3]: 4.91 µM (≈ 12.5 µg/mL)
MIC [4]: 0.61 µM (≈ 1.55 µg/mL)
MIC [5]: 2.46 µM (≈ 6.26 µg/mL)
MIC [6]: 2.46 µM (≈ 6.26 µg/mL)
MIC [7]: 2.46 µM (≈ 6.26 µg/mL)
MIC [8]: 4.91 µM (≈ 12.5 µg/mL)
SMILES: CC[C@H](C)[C@H](NC(=O)CNC(=O)[C@H](CCCN=C(N)N)NC(=O)[C@H](Cc1ccccc1)NC(=O)[C@@H](NC(=O)[C@H](Cc1cnc[nH]1)NC(=O)[C@H](Cc1cnc[nH]1)NC(=O)[C@H](Cc1ccccc1)NC(=O)[C@@H](N)Cc1ccccc1)[C@@H](C)CC)C(=O)N[C@H](C(=O)N[C@@H](Cc1cnc[nH]1)C(=O)N[C@H](C(=O)NCC(=O)N[C@@H](CCCCN)C(=O)N[C@H](C(=O)N[C@H](C(=O)N[C@@H](Cc1cnc[nH]1)C(=O)N[C@@H](CCCCN)C(=O)N[C@@H](CC(C)C)C(=O)N[C@H](C(=O)N[C@H](C(=O)NCC(=O)O)[C@@H](C)O)C(C)C)[C@@H](C)CC)[C@@H](C)O)C(C)C)C(C)C [FFHHIFRGIVHVGKTIHKLVTG]

MIC [9]: 20 µM (≈ 37.6 µg/mL)
MIC [3]: 50 µM (≈ 94.1 µg/mL)
MIC [10]: ≥ 60 µM
MIC [11]: 40 µM (≈ 75.3 µg/mL)
MIC [6]: 5 µM (≈ 9.41 µg/mL)
MIC [13]: 5 µM (≈ 9.41 µg/mL)
MIC [14]: 5 µM (≈ 9.41 µg/mL)
MIC [15]: 7.5 µM (≈ 14.1 µg/mL)
SMILES: CC[C@H](C)[C@H](NC(=O)[C@H](C)NC(=O)[C@H](CO)NC(=O)[C@@H]1CCCN1C(=O)[C@@H](NC(=O)[C@H](CC(C)C)NC(=O)[C@H](CO)NC(=O)[C@H](Cc1ccccc1)NC(=O)[C@H](CC(C)C)NC(=O)[C@@H](N)Cc1ccccc1)[C@@H](C)CC)C(=O)NCC(=O)NCC(=O)N[C@@H](CC(C)C)C(=O)N[C@H](C(=O)N[C@@H](CO)C(=O)N[C@@H](C)C(=O)N[C@@H](Cc1ccccc1)C(=O)N[C@@H](CCCCN)C(=O)O)[C@@H](C)CC [FLFSLIPSAIGGLISAFK]
MIC [12]: ≥ 60 µM

MIC [16]: 15 µM (≈ 22.9 µg/mL)
MIC [17]: 15 µM (≈ 22.9 µg/mL)
MIC [18]: 4 µM (≈ 6.1 µg/mL)
MIC [19]: 8 µM (≈ 12.2 µg/mL)
SMILES: CC[C@H](C)[C@H](NC(=O)CNC(=O)[C@H](CC(N)=O)NC(=O)[C@H](Cc1c[nH]c2ccccc12)NC(=O)[C@@H](NC(=O)[C@@H](NC(=O)[C@H](CO)NC(=O)[C@H](CC(C)C)NC(=O)[C@@H](N)Cc1ccccc1)[C@@H](C)O)[C@@H](C)CC)C(=O)N[C@@H](CCCCN)C(=O)N[C@@H](CO)C(=O)N[C@@H](CC(C)C)C(=O)N[C@@H](Cc1ccccc1)C(N)=O [FLSTIWNGIKSLF]

MIC (Bacillus subtilis 168): 7 µM (≈ 12.3 µg/mL)
MIC [20]: 10 µM (≈ 17.5 µg/mL)
MIC (Escherichia coli B): 8 µM (≈ 14 µg/mL)
MIC [21]: 3 µM (≈ 5.26 µg/mL)
MIC [11]: 5 µM (≈ 8.76 µg/mL)
MIC (Pseudomonas aeruginosa): 7.5 µM (≈ 13.1 µg/mL)
MIC (Staphylococcus aureus 1): 3.8 µM (≈ 6.66 µg/mL)
MIC [14]: 16 µM (≈ 28 µg/mL)
MIC (Staphylococcus aureus): 5 µM (≈ 8.76 µg/mL)
MIC [22]: 1.8 µM (≈ 3.15 µg/mL)
SMILES: CC[C@H](C)[C@H](NC(=O)CN)C(=O)N[C@@H](CC(C)C)C(=O)N[C@@H](CO)C(=O)N[C@@H](CO)C(=O)N[C@@H](CC(C)C)C(=O)N[C@@H](CC(C)C)C(=O)N[C@@H](CCCCN)C(=O)N[C@@H](CCCCN)C(=O)N[C@@H](CC(C)C)C(=O)N[C@@H](CCCCN)C(=O)N[C@@H](CCCCN)C(=O)N[C@H](C(=O)N[C@H](C(=O)N[C@@H](C)C(=O)N[C@@H](CCCCN)C(N)=O)[C@@H](C)CC)[C@@H](C)CC [GILSSLLKKLKKIIAK]

MIC [23]: ≥ 305 µM
MIC [24]: ≥ 305 µM
MIC [25]: ≥ 305 µM
SMILES: CC(C)[C@H](NC(=O)[C@H](CCCCN)NC(=O)[C@H](CCCCN)NC(=O)[C@H](C)NC(=O)[C@H](CCCCN)NC(=O)[C@H](CCCCN)NC(=O)[C@H](Cc1ccccc1)NC(=O)[C@H](Cc1ccccc1)NC(=O)[C@H](CCCCN)NC(=O)[C@H](CCCCN)NC(=O)[C@H](Cc1c[nH]c2ccccc12)NC(=O)CN)C(=O)NCC(=O)N[C@@H](CCCCN)C(=O)O [GWKKFFKKAKKVGK]

MIC [26]: 3.75 µM (≈ 3.9 µg/mL)
MIC [27]: 1.56 µM (≈ 1.62 µg/mL)
MIC [3]: 15 µM (≈ 15.6 µg/mL)
MIC [28]: ≥ 60.1 µM
MIC [29]: 12.5 µM (≈ 13 µg/mL)
MIC [30]: 12.5 µM (≈ 13 µg/mL)
MIC [15]: 3.75 µM (≈ 3.9 µg/mL)
SMILES: CC[C@H](C)[C@H](N)C(=O)N[C@@H](CCCN=C(N)N)C(=O)N[C@H](C(=O)N[C@@H](CCCCN)C(=O)N[C@H](C(=O)N[C@@H](CCCN=C(N)N)C(=O)N[C@H](C(=O)N[C@@H](CCCCN)C(N)=O)[C@@H](C)CC)[C@@H](C)CC)[C@@H](C)CC [IRIKIRIK]

MIC [31]: ≥ 128 µM
MIC [3]: 128 µM (≈ 220 µg/mL)
MIC [32]: > 128 µM
SMILES: CC(C)C[C@H](NC(=O)[C@H](Cc1cnc[nH]1)NC(=O)[C@H](Cc1ccc(O)cc1)NC(=O)[C@H](CCCN=C(N)N)NC(=O)[C@H](Cc1ccc(O)cc1)NC(=O)[C@H](CCCCN)NC(=O)[C@@H](N)CCCCN)C(=O)N[C@@H](CCCCN)C(=O)N1CCC[C@H]1C(=O)N[C@@H](Cc1ccccc1)C(=O)N[C@@H](CO)C(=O)N[C@@H](CCCCN)C(=O)N[C@@H](CCCCN)C(N)=O [KKYRYHLKPFSKK]

MIC (Escherichia coli AB94012): 31.2 µM (≈ 50 µg/mL)
MIC [3]: 62.4 µM (≈ 99.9 µg/mL)
MIC [33]: ≥ 62.4 µM
MIC [34]: 15.6 µM (≈ 25 µg/mL)
MIC [35]: 7.8 µM (≈ 12.5 µg/mL)
MIC [32]: 7.8 µM (≈ 12.5 µg/mL)
MIC [36]: 7.8 µM (≈ 12.5 µg/mL)
MIC [37]: 3.9 µM (≈ 6.25 µg/mL)
MIC [38]: 15.6 µM (≈ 25 µg/mL)
SMILES: CC[C@H](C)[C@H](NC(=O)[C@H](CO)NC(=O)[C@H](CCCCN)NC(=O)[C@@H](NC(=O)CNC(=O)[C@H](CCCCN)NC(=O)[C@H](Cc1c[nH]c2ccccc12)NC(=O)[C@H](CC(C)C)NC(=O)[C@H](CCCCN)NC(=O)CNC(=O)[C@H](CC(C)C)NC(=O)[C@@H](NC(=O)[C@@H](N)CC(C)C)[C@@H](C)CC)C(C)C)C(=O)N[C@@H](Cc1ccccc1)C(N)=O [LILGKLWKGVKSIF]
